In patent US6344464B1, “Use of tetrahydropyridine derivatives to prepare medicines for treating diseases causing demyelination” (Sanofi-Synthelabo, priority 1997, dated 2002):
Structures can show the parent of a compound that is named as a salt.

Assays:
[1] = test system: experimental allergic encephalitis (EAE); experiment: experimental allergic encephalitis (EAE) model induced by intraplantar myelin basic protein (fragment 68-84) in Freund's complete adjuvant; type: in vivo; settings: EAE in Lewis rats, administered orally from day zero of induction
Excerpt: The activity of the compounds of formula (I) was investigated in the model of experimental allergic encephalitis (EAE) induced in Lewis rats by the intraplantar administration of myelin basic protein (MBP) (fragment 68-84) in a Freund's complete adjuvant (FCA) enriched in Mycobacterium tuberculosis, according to the protocol published by Martin and Near (Journal of Neuroimmunology, 1995, 241-245).
EAE is an inflammatory autoimmune disease of the central nervous system which presents demyelinating lesions reminiscent of human multiple sclerosis.

| melting point [°C] | SMILES | severity of the disease (paralysis of the back paws) [1] | weight loss of the treated animals ([1]; compared with animals treated with the vehicle only) |
| --- | --- | --- | --- |
| – | Cl.FC(F)(F)c1cccc(C2=CCN(CCc3ccc4ccccc4c3)CC2)c1 [1-(2-naphth-2-ylethyl)-4-(3-trifluoromethylphenyl)-1,2,3,6-tetrahydropyridine hydrochloride] | statistically less severe | significantly lower |
| 207 to 210 | FC(F)(F)c1cccc(C2=CCN(CC(c3ccccc3)c3ccccc3)CC2)c1 (as salt: hydrochloride) | – | – |
| 140 to 143 | CCCCCc1ccc(CCN2CC=C(c3cccc(C(F)(F)F)c3)CC2)cc1C (as salt: oxalate) | – | – |
